Where two headings read alike, the source gives them in different places.
Tests used:
[1] = system: S. epidermidis ATCC 12228; test: Antibacterial liquid microdilution (CLSI M07-A8); format: cell-based, Staphylococcus epidermidis; conditions: 18 to 24 h
Method: (§1) Organometallic compounds play an increasingly important role in the search for new antibacterial agents. We, therefore, thought to investigate also the bactericidal activity of the newly synthesized cymantrenes 1–7, compound C and CymH. The antibacterial activity of the compounds was tested against Gram-positive methicillin-sensitive Staphylococcus aureus (MSSA), methicillin-resistant S. aureus (MRSA), vancomycin-intermediate S. aureus (VISA), S. epidermidis, and Gram-negative Escherichia coli bacterial strains, and expressed as minimal inhibitory concentration (MIC) values (Table 3).
(§2) The antibacterial activity of CymH, 1–7 and C and the reference drugs penicillin G and polymyxin B was tested by the liquid microdilution method under standard conditions using twofold dilution series, as described in the Clinical and Laboratory Standards Institute (CLSI), reference method M07-A8, and expressed as minimal inhibitory concentration (MIC) values. A panel of Gram-positive bacterial strains, S. aureus ATCC® 29213 (sensitive to methicillin, (MSSA)), S. aureus ATCC® 43300 (resistant to methicillin, (MRSA)), S. aureus ATCC 700787™ (intermediate to vancomycin, (VISA)), and S. epidermidis ATCC 12228™, and one Gram-negative, strain E. coli ATCC BAA-198™ (ESBL) were used. In addition, four clinical isolates of S. aureus (MSSA and MRSA) and two clinical isolates of S. epidermidis that were collected from different patients at the Medical University of Warsaw, Poland, were also tested. The bacterial cells were cultivated on tryptic soy agar (TSA) and nutrient agar (NA), according to ATCC recommendations. All of the strains were incubated at 37 °C. Tested compounds were dissolved in DMSO and then serially diluted twofold with cation-adjusted Mueller-Hinton broth (CAMHB). Then, 95 µL of the dilutions were dispensed into microdilution sterile plates (Mar-Four), followed by the addition of 5 µL of bacteria inoculum containing 5 × 10^4 CFU/mL. The final concentrations of the compounds ranged from 512 to 2 µg/mL. Each compound was tested in triplicate, and Penicillin G (8–0.15 µg/mL) and Polymyxin B (256–0.0625 µg/mL) were used as controls. The plates were incubated at 37 °C for 18 to 24 h depending on the bacterial strain. Thereafter, the absorbance was measured at λ = 540 nm and λ = 595 nm using a Spectrostar Omega microplate reader (BMG Labtech, Offenburg, Germany). The MIC value was defined as the lowest concentration of a compound that reduced the growth by 100%.

[2] = system: MCF-7 (hormone-responsive breast adenocarcinoma); test: MTT cytotoxicity assay, MCF-7; format: cell-based, human
Method: (§6) Anticancer activity of cymantrenes was determined using a panel of human cancer cell lines that were derived from solid tumors. […] The inhibitory effect of cymantrene derivatives on cell proliferation and growth was determined based on survival curves and was expressed as IC50 values (concentration required to achieve a 50% decrease in cell viability when compared to the viability of untreated control cells) calculated using GraphPad Prism 4.02 software for Windows (GraphPad Software, San Diego, CA, USA). Cell viability was determined by the MTT microplate spectrophotometric cytotoxicity test.
(§7) The cytotoxicity of cymantrene derivatives was evaluated by the MTT microplate methods as described elsewhere [67] by incubating the cells with increasing concentrations of tested compounds for 24 h. Briefly, 0.1 mL of logarithmically growing cells were seeded in a 96-well microplate (5 × 10^4 cells/well) a day before the experiments and after 24 h of culture, tested compounds, dissolved in DMSO, and diluted in culture medium, were added. […] After further incubation for 24 h, the medium was replaced with fresh medium and the cells were allowed to grow for additional 48 h. Then, the medium was aspirated and 0.05 mL of MTT (final concentration of 5 mg/mL medium) added to each well, and the cells were incubated for further 4 h. The absorbance of the product, resulting from the MTT reduction, was read with a microplate reader at 545 nm. The percentage of viable cells was calculated by comparing the absorbance of treated cells with that of the untreated control cells (taken as 100%). The IC50 concentration of each compound was calculated from the cell survival curves using GraphPad Prism 4.02 software for Windows (GraphPad Software, San Diego, CA, USA).

[3] = system: SKOV-3 (ovarian adenocarcinoma); test: MTT cytotoxicity assay, SKOV-3; format: cell-based, human
Method: as §6, §7

[4] = system: bloodstream forms of T. brucei clone 427-221a; test: Trypanocidal assay, resazurin viability assay; format: cell-based, Trypanosoma brucei
Method: (§3) All of the cultures were maintained at 37 °C in a humidified atmosphere containing 5% of CO2. Toxicity assays were performed, as previously described, with some modifications. In brief, trypanosomes and HL-60 cells were seeded at an initial cell density of 10^4/mL and 5 × 10^4/mL, respectively, in 96-well plates in a final volume of 200 μL culture medium containing various concentrations of test compounds dissolved in 100% DMSO. […] The controls contained DMSO alone. In all of the experiments, the final DMSO concentration was 0.9%. After 24 h incubation, 20 µL of a 0.5 mM resazurin solution prepared in PBS was added and the cultures were incubated for a further 48 h. Resazurin is a vital dye that, when being reduced by living cells, changes its colour from blue to pink. Thus, by measuring absorbance, the proliferation of cells can be easily determined. The change in absorbance was read with a microplate reader using a test wavelength of 570 nm and a reference wavelength of 630 nm. GI50 values were calculated by linear interpolation according to the method described by Huber and Koella. MIC values were determined microscopically.

[5] = system: S. aureus ATCC 700787 (VISA); test: Antibacterial liquid microdilution (CLSI M07-A8); format: cell-based, Staphylococcus aureus; conditions: 18 to 24 h
Method: as §1, §2

[6] = system: S. aureus ATCC 43300 (MRSA); test: Antibacterial liquid microdilution (CLSI M07-A8); format: cell-based, Staphylococcus aureus; conditions: 18 to 24 h
Method: as §1, §2

[7] = system: S. aureus ATCC 29213 (MSSA); test: Antibacterial liquid microdilution (CLSI M07-A8); format: cell-based, Staphylococcus aureus; conditions: 18 to 24 h
Method: as §1, §2

U87-MG (glioblastoma) = test: MTT cytotoxicity assay, U87-MG; format: cell-based, human
Method: as §6, §7

[8] = system: E. coli ATCC BAA-198 (ESBL); test: Antibacterial liquid microdilution (CLSI M07-A8); format: cell-based, Escherichia coli; conditions: 18 to 24 h
Method: as §1, §2

SKOV-3 cells [9] = test: Autophagy (acidic vesicular organelles, AVOs), acridine orange staining; format: cell-based, human; conditions: SKOV-3, IC50 concentrations 24 h, then 0, 24 or 48 h drug-free
Method: (§4) To determine the mode of cell death that was triggered by cymantrene derivatives, appropriately stained SKOV-3 cells were evaluated for morphological changes using fluorescence microscopy. For evaluation of apoptosis and autophagy, cells were stained with Hoechst 33258/propidium iodide to distinguish between live, apoptotic and necrotic cells and reveal condensed chromatin and apoptotic bodies (a hallmark of apoptosis), and with acridine orange to detect the development of acidic vesicular organelles (AVOs—a hallmark of autophagy).
(§5) One day prior to the experiments, cells were seeded at the appropriate density into 35 mm diameter dishes. […] At the end of incubation, the medium was aspirated, the cell monolayer was washed twice with pre-warmed PBS, and fresh medium was added. The cells were cultured in drug-free medium for an additional 24 or 48 h to enable them to recover after the exposure to the compounds and to repair any induced damages.
The ability of tested compounds to induce autophagosome formation inside cells (the process associated with the induction of autophagy) was evaluated by microscopic examination of the morphology of cells stained with acridine orange (AO).

SKOV-3 cells [10] = test: Apoptotic/necrotic cell death, Hoechst 33258/propidium iodide staining, fluorescence microscopy; format: cell-based, human; conditions: for increase of apoptotic cells compared to untreated control cells: SKOV-3, 24 h treatment with IC50 concentrations, post-treatment 24 and 48 h
Method: as §4, §5
Quantitative analysis of morphological changes that are associated with apoptosis, necrosis, and autophagy were assessed using a fluorescence microscope (Olympus IX70, Tokyo, Japan) at 400× magnification, as described elsewhere. At the indicated time points, cells were washed with PBS, trypsinized, and centrifuged at 1000 rpm (fixed angle rotor, 72× g) for 5 min at 37 °C. The supernatant was removed and the cell pellet (100 µL) was transferred to the Eppendorf tube, mixed with Ho33258 (2 µL, 0.13 mM) and PI (2 µL, 0.23 mM), and incubated for 5 min in the dark at room temperature. At least 300 stained cells were counted in triplicate in each of the three independent experiments. Cells were classified as live, apoptotic, or necrotic on the basis of their morphological and staining characteristics, and each fraction was related to the total cell number.

[11] = system: HepG2 (hepatocellular carcinoma); test: MTT cytotoxicity assay, HepG2; format: cell-based, human
Method: as §6, §7

[12] = system: MDA-MB-231 (triple negative breast adenocarcinoma); test: MTT cytotoxicity assay, MDA-MB-231; format: cell-based, human
Method: as §6, §7

[13] = system: human myeloid leukemia HL-60 cells; test: in vitro
Method: as §3

[14] = system: human myeloid leukemia HL-60 cells; conditions: cited from earlier work
[15] = system: A549 (non-small cell lung carcinoma); test: MTT cytotoxicity assay, A549
Method: Anticancer activity of cymantrenes was determined using a panel of human cancer cell lines that were derived from solid tumors. These included cell lines of estrogen-responsive, doxorubicin resistant, and triple negative breast adenocarcinomas (MCF-7, MCF-7/DX, and MDA-MB-231), ovarian adenocarcinoma (SKOV-3), non-small cell lung carcinoma (A549), hepatocellular carcinoma (HepG2), and glioblastoma (U-87 MG). The inhibitory effect of cymantrene derivatives on cell proliferation and growth was determined based on survival curves and was expressed as IC50 values (concentration required to achieve a 50% decrease in cell viability when compared to the viability of untreated control cells) calculated using GraphPad Prism 4.02 software for Windows (GraphPad Software, San Diego, CA, USA). Cell viability was determined by the MTT microplate spectrophotometric cytotoxicity test.
Anticancer activity of cymantrene derivetives were determined on the basis of their cytotoxic effects on a panel of human cancer cells, as derived from different types of solid tumors: estrogen responsive breast adenocarcinoma (MCF-7), triple negative breast adenocarcinoma (MDA-MB-231), ovarian adenocarcinoma (SKOV-3), non-small cell lung carcinoma (A549), hepatocellular carcinoma (HepG2), and glioblastoma (U-87 MG). Additionally, doxorubicin resistant breast adenocarcinoma cells (MCF-7/Dox) were also included for comparison. All of the cell lines were purchased from American Type Culture Collection (ATCC, Rockville, MD, USA), except the MCF-7/dox cell line, which was a generous gift from Professor Malgorzata Latocha from the Department of Cell Biology, Medical University of Silesia in Katowice, Poland.
Cells were grown as a monolayer in DMEM growth medium, supplemented with 10% FBS, penicillin (10 U/mL) and streptomycin (50 μg/mL), under standard conditions (37 °C, 5% CO2 and 95% air, 100% humidity) and periodically checked for Mycoplasma contamination.
The cytotoxicity of cymantrene derivatives was evaluated by the MTT microplate methods as described elsewhere by incubating the cells with increasing concentrations of tested compounds for 24 h. Briefly, 0.1 mL of logarithmically growing cells were seeded in a 96-well microplate (5 × 10^4 cells/well) a day before the experiments and after 24 h of culture, tested compounds, dissolved in DMSO, and diluted in culture medium, were added. […] After further incubation for 24 h, the medium was replaced with fresh medium and the cells were allowed to grow for additional 48 h. Then, the medium was aspirated and 0.05 mL of MTT (final concentration of […] medium) added to each well, and the cells were incubated for further 4 h. The absorbance of the product, resulting from the MTT reduction, was read with a microplate reader at 545 nm. The percentage of viable cells was calculated by comparing the absorbance of treated cells with that of the untreated control cells (taken as 100%). The IC50 concentration of each compound was calculated from the cell survival curves using GraphPad Prism 4.02 software for Windows (GraphPad Software, San Diego, CA, USA).

[16] = system: bloodstream forms of T. brucei clone 427-221a; conditions: cited from earlier work
[17] = system: MCF-7/DX (estrogen-responsive breast adenocarcinoma resistant to doxorubicin); test: cells; format: cell-based, human
Method: as §7

Compound	IC50 [2]	IC50 [3]	IC50 (U87-MG (glioblastoma))	induction of autophagy (cells containing AVOs) (SKOV-3 cells [9])	increase of apoptotic cells compared to untreated control cells (SKOV-3 cells [10])	IC50 [11]	IC50 [12]	GI50 [14]	GI50 [16]	T. brucei MIC [16]	further results
O=c1[nH]c(=O)n(CCC(O)[C]23[CH]4[CH]5[CH]6[CH]2[Mn]5643)cc1F.[C-]#[O+].[C-]#[O+].[C-]#[O+] (racemic) [Compound 2]	119 ± 2.97 µM	97.5 ± 2.87 µM	100 ± 1.01 µM	greatest autophagic changes	11 fold	> 150 µM	> 150 µM				MIC, S. epidermidis ATCC 12228 [1]: >512 µg/mL; GI50 ([4]; 50% growth inhibition): > 100 µM; MIC ([4]; concentration at which all cells were killed, determined microscopically): >100 µM; MIC, S. aureus ATCC 700787 (VISA) [5]: >512 µg/mL; MIC, S. aureus ATCC 43300 (MRSA) [6]: >512 µg/mL; MIC, S. aureus ATCC 29213 (MSSA) [7]: >512 µg/mL; MIC, E. coli ATCC BAA-198 [8]: >512 µg/mL; apoptotic cell fraction predominantly increased (SKOV-3 cells [10]; SKOV-3, IC50 concentrations): late-apoptotic cell fraction; GI50 [13]: > 100 µM; HL-60 MIC [13]: >100 µM
Nc1ncnc2c1ncn2CCC(O)[C]12[CH]3[CH]4[CH]5[CH]1[Mn]4532.[C-]#[O+].[C-]#[O+].[C-]#[O+] (racemic) [Compound B]	> 150 µM	> 150 µM	> 150 µM	Less induction of autophagy	only a three-fold increase	> 150 µM	> 150 µM	> 100 µM	30.8 ± 3.5 µM	>100 µM	IC50 [15]: > 150 µM; Selectivity GI50 Ratio ([16]; HL-60 / T. brucei): >3.2
COc1cccc2c1C(=O)c1c(O)c3c(c(O)c1C2=O)C[C@@](O)(C(=O)CO)C[C@@H]3O[C@H]1C[C@H](N)[C@H](O)[C@H](C)O1 [DOX, doxorubicin, reference compound]											IC50 ([2]; Homo sapiens, MCF7, 24 h, read-out: cytotoxicity IC50, MCF-7): 0.439 ± 0.026 µM; IC50 ([3]; Homo sapiens, SK-OV-3, 24 h, read-out: cytotoxicity IC50, SKOV-3): 0.858 ± 0.044 µM; IC50 ([17]; Homo sapiens, MCF7/DX, 24 h, read-out: cytotoxicity IC50, MCF-7/DX): 48.5 ± 2.78 µM; fold less effective against MCF-7/DX cells than MCF-7 cells ([17]; MCF-7/DX vs MCF-7): ~100 fold; IC50 (U87-MG (glioblastoma); Homo sapiens, U-87 MG, 24 h, read-out: cytotoxicity IC50, U87-MG): 0.61 ± 0.029 µM; IC50 ([11]; Homo sapiens, HepG2, 24 h, read-out: cytotoxicity IC50, HepG2): 0.569 ± 0.021 µM; IC50 ([15]; Homo sapiens, A549, 24 h, read-out: cytotoxicity IC50, A549): 0.3 ± 0.018 µM; IC50 ([12]; Homo sapiens, MDA-MB-231, 24 h, read-out: cytotoxicity IC50, MDA-MB-231): 1.07 ± 0.062 µM
O=C(CCn1ccc(=O)[nH]c1=O)[C]12[CH]3[CH]4[CH]5[CH]1[Mn]4532.[C-]#[O+].[C-]#[O+].[C-]#[O+] (stereo not shown) [non-fluorinated counterpart]								> 100 µM	3.6 µM	100 µM	HL-60 MIC [14]: > 100 µM
NCCCC(N)(C(=O)O)C(F)F (stereo not shown) [DFMO, difluoromethylornithine, reference compound]									23.9 µM	>125 µM	
